The record followed here is PMC10687288, “Chalcones: The flavonoid derivatives synthesis, characterization, their antioxidant and in vitro/in vivo antidiabetic potentials” (Heliyon, 2023).

The target in this assay is α-glucosidase. The experiment in a line: p-nitrophenyl-α-D-glucopyranoside hydrolysis assay, absorbance […] nm. The class given is biochemical.
As to `O=C(/C=C/c1ccccc1Cl)c1ccc(Br)cc1` [JA1, (E)-1-(4-bromophenyl)-3-(2-chlorophenyl) prop-2-ene-1one], the “Glucosidase IC50” value turned out to be 85.11 ± 1.29 µg/mL.

As for `O=C(/C=C/c1cccc(Cl)c1)c1ccc(Br)cc1` [JA2, (E)-1-(4-bromophenyl)-3-(3-chlorophenyl) prop-2-ene-1one], the “Glucosidase IC50” value stood at 97.24 ± 1.48 µg/mL.

Take `O=C(/C=C/c1ccc(Cl)cc1)c1ccc(Br)cc1` [JA3, (E)-1-(4-bromophenyl)-3-(4-chlorophenyl) prop-2-ene-1one]: the “Glucosidase IC50” value is 63.04 ± 1.17 µg/mL.
